Laboratory results reported in patent publication US10669242B2 (priority 2016, dated 2020).

Experiments:
C. difficile = type: in vivo, C57/BL6 mice
C. difficile strain 630 = type: in vivo, Golden Syrian hamsters; details: PO twice per day; Example 5ae 50 mg/kg 7 days; vancomycin 5 mg/kg 5 days
[1] = test system: C. difficile infection (CDI); details: patients; Louie et al. 2011; cited from earlier work
[2] = target: T1, recombinant glucosyltransferase domain of C. difficile Toxin B/TcdB (Clostridioides difficile, UniProt P18177); test: biochemical
T1 construct: 6-His (C); purchased R&D Systems 6246-GT
T1 sequence (P18177 1-543): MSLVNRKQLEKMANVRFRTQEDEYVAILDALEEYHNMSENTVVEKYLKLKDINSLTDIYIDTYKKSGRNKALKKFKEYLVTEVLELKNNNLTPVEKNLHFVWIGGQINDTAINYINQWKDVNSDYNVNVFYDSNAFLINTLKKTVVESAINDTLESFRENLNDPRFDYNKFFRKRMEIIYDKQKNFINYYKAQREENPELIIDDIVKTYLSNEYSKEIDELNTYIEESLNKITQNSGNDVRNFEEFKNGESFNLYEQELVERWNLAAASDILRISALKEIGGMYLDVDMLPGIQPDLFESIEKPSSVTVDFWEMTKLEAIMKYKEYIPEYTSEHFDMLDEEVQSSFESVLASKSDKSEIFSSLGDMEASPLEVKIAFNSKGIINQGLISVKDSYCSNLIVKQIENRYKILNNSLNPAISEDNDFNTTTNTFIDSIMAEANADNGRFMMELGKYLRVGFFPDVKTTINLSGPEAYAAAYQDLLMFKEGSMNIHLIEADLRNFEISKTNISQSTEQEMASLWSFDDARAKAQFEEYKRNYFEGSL

[3] = target: T2, C. difficile full-length toxin TcdA (Clostridioides difficile, UniProt P16154); test: cell-based
T2 construct: C. difficile full-length toxins (TcdA or TcdB); purchased Enzo Life Sciences BML-G140-0050

[4] = target: T3, C. difficile full-length toxin TcdB (Clostridioides difficile, UniProt P18177); test: cell-based
T3 construct: C. difficile full-length toxins (TcdA or TcdB); purchased EMD Millipore 616377
T3 sequence (P18177 2-2366 limits assumed): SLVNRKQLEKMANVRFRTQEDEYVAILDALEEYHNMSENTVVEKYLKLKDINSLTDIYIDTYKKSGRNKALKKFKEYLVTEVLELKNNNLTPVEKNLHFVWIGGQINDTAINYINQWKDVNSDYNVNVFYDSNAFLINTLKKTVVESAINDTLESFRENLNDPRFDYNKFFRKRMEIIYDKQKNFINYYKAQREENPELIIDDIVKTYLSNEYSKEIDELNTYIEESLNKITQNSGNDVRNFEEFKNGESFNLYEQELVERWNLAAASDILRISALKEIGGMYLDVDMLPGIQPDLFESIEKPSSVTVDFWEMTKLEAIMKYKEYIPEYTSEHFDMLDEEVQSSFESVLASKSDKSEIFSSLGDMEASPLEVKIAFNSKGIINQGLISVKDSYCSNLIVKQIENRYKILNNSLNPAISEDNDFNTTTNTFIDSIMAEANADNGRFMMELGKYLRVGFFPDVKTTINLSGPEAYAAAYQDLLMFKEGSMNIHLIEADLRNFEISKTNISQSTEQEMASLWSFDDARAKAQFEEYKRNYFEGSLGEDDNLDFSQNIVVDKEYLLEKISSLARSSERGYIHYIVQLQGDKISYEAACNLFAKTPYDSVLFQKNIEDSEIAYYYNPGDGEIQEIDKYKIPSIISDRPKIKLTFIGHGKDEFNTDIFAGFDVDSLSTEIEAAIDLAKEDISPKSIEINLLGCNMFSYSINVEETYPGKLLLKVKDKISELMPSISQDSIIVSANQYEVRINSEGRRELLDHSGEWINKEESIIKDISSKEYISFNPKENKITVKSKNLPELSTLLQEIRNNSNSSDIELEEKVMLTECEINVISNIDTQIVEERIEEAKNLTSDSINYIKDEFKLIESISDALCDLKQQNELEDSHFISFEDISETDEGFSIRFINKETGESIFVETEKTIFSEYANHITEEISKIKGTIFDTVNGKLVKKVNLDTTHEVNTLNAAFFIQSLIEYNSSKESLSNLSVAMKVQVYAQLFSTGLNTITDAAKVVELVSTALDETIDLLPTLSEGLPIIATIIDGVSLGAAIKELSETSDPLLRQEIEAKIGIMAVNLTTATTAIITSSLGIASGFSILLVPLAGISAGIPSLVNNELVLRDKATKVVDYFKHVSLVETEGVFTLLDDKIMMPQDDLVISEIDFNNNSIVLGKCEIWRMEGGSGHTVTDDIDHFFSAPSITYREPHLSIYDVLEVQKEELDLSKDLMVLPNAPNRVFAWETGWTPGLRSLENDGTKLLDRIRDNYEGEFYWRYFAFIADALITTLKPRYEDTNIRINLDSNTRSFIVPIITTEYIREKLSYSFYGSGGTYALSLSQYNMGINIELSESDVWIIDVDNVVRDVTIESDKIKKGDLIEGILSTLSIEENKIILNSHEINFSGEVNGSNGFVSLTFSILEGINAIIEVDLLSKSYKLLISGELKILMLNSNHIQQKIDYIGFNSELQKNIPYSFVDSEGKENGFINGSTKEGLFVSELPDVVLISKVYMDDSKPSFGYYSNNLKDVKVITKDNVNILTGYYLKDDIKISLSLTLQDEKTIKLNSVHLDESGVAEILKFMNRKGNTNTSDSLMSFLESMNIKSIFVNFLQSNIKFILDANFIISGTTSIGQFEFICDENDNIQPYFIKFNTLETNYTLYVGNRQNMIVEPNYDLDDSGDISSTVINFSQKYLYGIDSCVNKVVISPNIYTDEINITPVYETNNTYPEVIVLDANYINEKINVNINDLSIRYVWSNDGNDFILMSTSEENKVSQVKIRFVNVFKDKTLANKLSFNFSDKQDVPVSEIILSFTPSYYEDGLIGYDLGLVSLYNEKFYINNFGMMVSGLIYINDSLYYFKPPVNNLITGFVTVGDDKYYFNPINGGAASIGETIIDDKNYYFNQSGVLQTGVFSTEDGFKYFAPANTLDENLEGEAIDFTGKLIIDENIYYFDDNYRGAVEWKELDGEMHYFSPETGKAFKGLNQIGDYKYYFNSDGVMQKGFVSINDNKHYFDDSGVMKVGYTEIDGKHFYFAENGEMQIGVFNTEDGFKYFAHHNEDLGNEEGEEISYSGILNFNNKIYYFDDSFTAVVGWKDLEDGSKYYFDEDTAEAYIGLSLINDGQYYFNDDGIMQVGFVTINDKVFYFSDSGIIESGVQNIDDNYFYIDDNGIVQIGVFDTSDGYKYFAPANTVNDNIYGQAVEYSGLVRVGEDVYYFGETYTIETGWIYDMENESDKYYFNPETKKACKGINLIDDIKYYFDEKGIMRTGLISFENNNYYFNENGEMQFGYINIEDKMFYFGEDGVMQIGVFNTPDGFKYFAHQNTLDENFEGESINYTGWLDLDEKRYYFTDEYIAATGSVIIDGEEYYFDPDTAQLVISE

[5] = test system: C. difficile toxin (TcdA and TcdB, ~1:1); test: Murine C. difficile toxin model (intrarectal toxin); type: in vivo, C57BL/6 mice; details: for IL-1β (% Inhibition) / MPO (% Inhibition): murine C. difficile toxin model, PO, 50 mg/kg body weight; for IL-1β in colon tissue / MPO in colon tissue / toxin effect on colon length: oral (PO), 50 mg/kg, intrarectal toxin 12.5 μg
[6] = test system: C. difficile strain VPI 10463; test: Acute murine C. difficile infection model; type: in vivo, C57BL/6 mice; details: PO; 52 hours after infection
From the text: In a hospital environment, C. difficile infection occurs when the patient receives an antibiotic treatment that disrupts the normal gut microflora and is exposed to C. difficile spores. The patient often fails to mount a protective immune response against the acute C. difficile infection. (Rupnik, Wilcox et al. 2009). To study the acute C. difficile infection, we established a murine C. difficile infection model. Details of the infection model are provided in the “Experimental Protocol” (below).
In brief, female C57BL/6 mice were administered the following antibiotics: colistin (0.042 units/mL), gentamicin (0.035 mg/mL), kanamycin (0.4 mg/mL), metronidazole (0.215 mg/mL) and vancomycin (0.045 mg/mL) in drinking water for 3 days. The administered antibiotics disrupted the normal gut microflora in mice. On the 4th day, mice received oral administration of 0.5 mL volume containing ˜100 spores produced from a virulent clinical C. difficile isolate (strain VPI 10463). In this acute murine C. difficile infection model, we observed a similar time course of infection when compared to that of clinical patients.
Using the developed murine C. difficile infection model (Example 67), we evaluated our test compounds for their efficacy in reducing weight loss and gut inflammation caused by the acute C. difficile infection. We tested the efficacy of Example 6a and Example 5ae and used eight (8) animals in each group.
We further tested the efficacy of the Example 6a, Example 5ae, Example 4cl, and Example 5al compounds by PO administration. Vancomycin was used as a positive control. Three (3) experiments were performed utilizing a total of five (5) to sixteen (16) animals in each group.
C. difficile strain VPI 10463 was grown for four (4) days in 10 ml of BHI in a Bactron anaerobic workstation (Shel Lab). The culture was centrifuged at 2,700 g for 10 minutes. The bacterial pellet was washed with 10 mL of PBS and the centrifugation was repeated. The pellet was then re-suspended in 10 mL of PBS, incubated at 56° C. for 10 minutes, and then was frozen at −20° C. until used. Titers of spore stocks were determined by serial dilution and plating onto BHI and with 1% taurocholate and counting of colonies after incubation for 24 hours at 37° C. using the GasPak EZ Anaerobe Pouch System.
We utilized an established C. difficile murine infection model (Chen, Katchar et al. 2008). To render them susceptible to infection, female C57BL/6 mice (˜10 weeks old and weighing ˜20 g) were administered the following antibiotics (Sigma Aldrich) in drinking water for 3 days (Days −6 to −3): colistin (0.042 units/mL), gentamicin (0.035 mg/mL), kanamycin (0.4 mg/mL), metronidazole (0.215 mg/mL) and vancomycin (0.045 mg/mL). Based upon an expected water consumption of 100 mL/kg/day, the approximate doses of these antibiotics will be as follows: colistin (4.2 units/kg/day), gentamicin (3.5 mg/kg/day), kanamycin (40 mg/kg/day), metronidazole (21.5 mg/kg/day) and vancomycin (4.5 mg/kg/day). The animals were provided with regular drinking water for two days (Day −2 and Day −1), and the next day (Day 0) they were administered clindamycin phosphate (1 mg/mL solution in PBS) at 10 mL/kg by intraperitoneal injection, for a final dose of 10 mg/kg body weight. The following day (Day 1), they were orally gavaged with ˜100 spores in a 0.5 ml volume.
Compounds were administered beginning ˜8 hours after infection, and the animals were dosed twice per day for two days (Days 2-3) with a total of four doses. Compounds were prepared as 5 mg/mL suspensions in 20% PEG-400, 0.4% carboxymethyl cellulose and 0.2% Tween 80 and administered at a dose of 10 mL/kg, for a final dose of 50 mg/kg body weight.
Animals were observed and weighed two (2) to (3) times daily. Animals that were obviously moribund or had lost >20% of their initial body weight were euthanized. Sub-groups of animals were euthanized four (4) hours after the final compound dose (52 hours after infection). […]

**Q.** For `CN[C@H](CC(C)C)C(=O)N[C@H]1C(=O)N[C@@H](CC(N)=O)C(=O)N[C@H]2C(=O)N[C@H]3C(=O)N[C@H](C(=O)N[C@H](C(=O)O)c4cc(O)cc(O)c4-c4cc3ccc4O)[C@H](O)c3ccc(c(Cl)c3)Oc3cc2cc(c3O[C@@H]2O[C@H](CO)[C@@H](O)[C@H](O)[C@H]2O[C@H]2C[C@](C)(N)[C@H](O)[C@H](C)O2)Oc2ccc(cc2Cl)[C@H]1O` [vancomycin, reference compound], which “weight loss, days 8-9 after infection” value (C. difficile; relapse model, PO, vancomycin 20 mg/kg once per day for five days) is on record?
**A.** significant weight loss

**Q.** And the “weight loss during treatment (Days 1-5)” value (C. difficile; vancomycin 20 mg/kg oral, once per day for five days)?
**A.** prevented weight loss

**Q.** What about the body weight loss (C. difficile strain 630) of the same molecule?
**A.** prevented any significant weight loss

**Q.** What about the CDI recurrence [1] of the same molecule?
**A.** 25%

**Q.** For `COc1ccc(NC(=O)c2ccc(CN3C(=O)c4ccc(Cl)cc4NC(=O)[C@H]3Cc3ccccn3)cc2C)nc1` [Example 4cl, (R)-4-((8-Chloro-2,5-dioxo-3-(pyridin-2-ylmethyl)-2,3-dihydro-1H-benzo[e][1,4]diazepin-4(5H)-yl)methyl)-N-(5-methoxypyridin-2-yl)-2-methylbenzamide], which IC50 [2] is on record?
**A.** < 100 nM

**Q.** What about the IC50 [3] of the same molecule?
**A.** 100 to 999 nM

**Q.** And the IC50 [4]?
**A.** < 100 nM

**Q.** And the “IL-1β (% Inhibition)” value [5]?
**A.** 100%

**Q.** What about the “MPO (% Inhibition)” value [5] of the same molecule?
**A.** 100%

**Q.** What about the “IL-1β in colon tissue” value [5] of the same molecule?
**A.** reduced the levels of IL-1β

**Q.** And the “MPO in colon tissue” value [5]?
**A.** reduced

**Q.** And the “toxin effect on colon length” value [5]?
**A.** reduced the C. difficile toxin-mediated effects on colon length

**Q.** What about the “toxin effect on colon length” value [6] of the same molecule?
**A.** significantly reduced the toxin effect on colon length

**Q.** Which CDI recurrence [1] does the source give for `CCc1c(Cl)c(O)c(Cl)c(O)c1C(=O)O[C@H]1[C@H](O)[C@H](OC)[C@H](OC/C2=C\C=C\C[C@H](O)/C(C)=C/[C@H](CC)[C@@H](O[C@@H]3OC(C)(C)[C@@H](OC(=O)C(C)C)[C@H](O)[C@@H]3O)/C(C)=C/C(C)=C/C[C@@H]([C@@H](C)O)OC2=O)O[C@@H]1C` [fidaxomicin] here?
**A.** 8%

**Q.** For `Cc1cc(CN2C(=O)c3ccc(Cl)cc3NC(=O)[C@H]2Cc2ccccn2)ccc1C(=O)Nc1ccc(C(F)(F)F)cn1` [Example 5al, (R)-4-((8-Chloro-2,5-dioxo-3-(pyridin-2-ylmethyl)-2,3-dihydro-1H-benzo[e][1,4]diazepin-4(5H)-yl)methyl)-2-methyl-N-(5-(trifluoromethyl)pyridin-2-yl)benzamide], which IC50 [2] is on record?
**A.** < 100 nM

**Q.** What about the IC50 [3] of the same molecule?
**A.** 1000 to 10000 nM

**Q.** And the IC50 [4]?
**A.** < 100 nM

**Q.** What about the “IL-1β (% Inhibition)” value [5] of the same molecule?
**A.** 81%

**Q.** What about the “MPO (% Inhibition)” value [5] of the same molecule?
**A.** 91%

**Q.** And the “IL-1β in colon tissue” value [5]?
**A.** reduced the levels of IL-1β

**Q.** What about the “MPO in colon tissue” value [5] of the same molecule?
**A.** reduced

**Q.** And the “toxin effect on colon length” value [5]?
**A.** reduced the C. difficile toxin-mediated effects on colon length

**Q.** What about the “IL-1β in colon tissues” value [6] of the same molecule?
**A.** reduced the level of IL-1β

**Q.** What about the “MPO in colon tissues” value [6] of the same molecule?
**A.** reduced

**Q.** What about the “toxin effect on colon length” value [6] of the same molecule?
**A.** significantly reduced the toxin effect on colon length
